From US7585874B2, “Aryl-isoxazol-4-yl-imidazo[1,2-a]pyridine derivatives” (Hoffmann-La Roche Inc., priority 2006, dated 2009) come the findings set out here.

This test deals with T1, GABA A receptor α5β3γ2 (Homo sapiens, UniProt P18507+P31644).
T1 construct: expressed in transfected cells; host or cells: HEK293 (transiently transfected; membranes)
Put plainly: [3H]flumazenil competition binding, membranes of HEK293 cells expressing human GABA A α5β3γ2. As to conditions: human α5β3γ2 in HEK293 (transiently transfected); 0.5 nM [3H]flumazenil; 1 hour at 4° C.; means of two determinations; read-out: Ki[nM]hα5. Here is the method:
The affinity of compounds at GABA A receptor subtypes was measured by competition for [3H]flumazenil (85 Ci/mmol; Roche) binding to HEK293 cells expressing rat (stably transfected) or human (transiently transfected) receptors of composition α1β3γ2, α2β3γ2, α3β3γ2 and α5β3γ2.
Cell pellets were suspended in Krebs-tris buffer (4.8 mM KCl, 1.2 mM CaCl2, 1.2 mM MgCl2, 120 mM NaCl, 15 mM Tris; pH 7.5; binding assay buffer), homogenized by polytron for ca. 20 sec on ice and centrifuged for 60 min at 4° C. (50000 g; Sorvall, rotor: SM24=20000 rpm). The cell pellets were resuspended in Krebs-tris buffer and homogenized by polytron for ca. 15 sec on ice. Protein was measured (Bradford method, Bio-Rad) and aliquots of 1 mL were prepared and stored at −80° C.
Radioligand binding assays were carried out in a volume of […] (96-well plates) which contained […] of cell membranes, [3H]flumazenil at a concentration of 1 nM for α1, α2, α3 subunits and 0.5 nM for α5 subunits and the test compound in the range of […]. Nonspecific binding was defined by 10^−5 M diazepam and typically represented less than 5% of the total binding. Assays were incubated to equilibrium for 1 hour at 4° C. and harvested onto GF/C uni-filters (Packard) by filtration using a Packard harvester and washing with ice-cold wash buffer 50 mM Tris; pH 7.5). After drying, filter-retained radioactivity was detected by liquid scintillation counting. Ki values were calculated using Excel-Fit (Microsoft) and are the means of two determinations.

By Ki is commonly meant the equilibrium dissociation constant of an inhibitor or competing ligand from its target.

Consider `Cc1onc(-c2ccccc2)c1-c1cn2cc(NC(=O)C3CCC3)ccc2n1` [Example 58, Cyclobutanecarboxylic acid [2-(5-methyl-3-phenyl-isoxazol-4-yl)-imidazo[1,2-a]pyridin-6-yl]-amide], for which the Ki is 28.2 nM.
Regarding `Cc1onc(-c2ccccc2)c1-c1cn2cc(C(=O)NCCN3CCOCC3)ccc2n1` [Example 38, 2-(5-Methyl-3-phenyl-isoxazol-4-yl)-imidazo[1,2-a]pyridine-6-carboxylic acid (2-morpholin-4-yl-ethyl)-amide], the Ki amounted to 174 nM.
The figure for `Cc1onc(-c2ccccc2)c1-c1cn2cc(NC(=O)Cc3cccnc3)ccc2n1` [Example 56, N-[2-(5-Methyl-3-phenyl-isoxazol-4-yl)-imidazo[1,2-a]pyridin-6-yl]-2-pyridin-3-yl-acetamide] is 54.3 nM; for `Cc1onc(-c2ccccc2)c1-c1cn2cc(C(=O)NCc3ccco3)ccc2n1` [Example 43, 2-(5-Methyl-3-phenyl-isoxazol-4-yl)-imidazo[1,2-a]pyridine-6-carboxylic acid (furan-2-ylmethyl)-amide] it is 36.9 nM; for `Cc1ccc2nc(-c3c(-c4ccccc4)noc3C)cn2c1` [Example 24, 6-Methyl-2-(5-methyl-3-phenyl-isoxazol-4-yl)-imidazo[1,2-a]pyridine] it is 33.1 nM.
For the molecule `Cc1onc(-c2ccccc2)c1-c1cn2cc(C(=O)NCc3ccncc3)ccc2n1` [Example 42, 2-(5-Methyl-3-phenyl-isoxazol-4-yl)-imidazo[1,2-a]pyridine-6-carboxylic acid (pyridin-4-ylmethyl)-amide], the Ki was found to be 85.5 nM.
For the molecule `CCc1ccn2cc(-c3c(-c4ccccc4)noc3C)nc2c1` [Example 9, 7-Ethyl-2-(5-methyl-3-phenyl-isoxazol-4-yl)-imidazo[1,2-a]pyridine], the inhibition constant Ki amounted to 101 nM.
The figure for `Cc1onc(-c2ccccc2)c1-c1cn2cc(Br)ccc2n1` [Example 27, 6-Bromo-2-(5-methyl-3-phenyl-isoxazol-4-yl)-imidazo[1,2-a]pyridine] is 121 nM; for `Brc1ccc2nc(-c3c(-c4ccccc4)noc3C3CC3)cn2c1` [Example 69, 6-Bromo-2-(5-cyclopropyl-3-phenyl-isoxazol-4-yl)-imidazo[1,2-a]pyridine] it is 7.13 nM.
As to `Cc1onc(-c2ccccc2)c1-c1cn2cc(NC(=O)c3ccccc3)ccc2n1` [Example 60, N-[2-(5-Methyl-3-phenyl-isoxazol-4-yl)-imidazo[1,2-a]pyridin-6-yl]-benzamide], the Ki was 30.7 nM.
The figure for `Cc1onc(-c2ccccc2)c1-c1cn2ccc(NC(=O)Cc3cccnc3)cc2n1` [Example 47, N-[2-(5-Methyl-3-phenyl-isoxazol-4-yl)-imidazo[1,2-a]pyridin-7-yl]-2-pyridin-3-yl-acetamide] is 50.7 nM; for `Cc1onc(-c2ccccc2)c1-c1cn2cc(-n3cccc3)ccc2n1` [Example 64, 2-(5-Methyl-3-phenyl-isoxazol-4-yl)-6-pyrrol-1-yl-imidazo[1,2-a]pyridine] it is 73.2 nM; for `Cc1ccn2cc(-c3c(-c4ccccc4)noc3C)nc2c1` [Example 8, 7-Methyl-2-(5-methyl-3-phenyl-isoxazol-4-yl)-imidazo[1,2-a]pyridine] it is 81.7 nM.
The figure for `Cc1onc(-c2ccccc2)c1-c1cn2cccc(C)c2n1` [Example 2, 8-Methyl-2-(5-methyl-3-phenyl-isoxazol-4-yl)-imidazo[1,2-a]pyridine] is 232 nM; for `Cc1onc(-c2ccccc2)c1-c1cn2ccc(NC(=O)C3CC3)cc2n1` [Example 48, Cyclopropanecarboxylic acid [2-(5-methyl-3-phenyl-isoxazol-4-yl)-imidazo[1,2-a]pyridin-7-yl]-amide] it is 79.4 nM; for `C#CCNC(=O)c1ccn2cc(-c3c(-c4ccccc4)noc3C)nc2c1` [Example 12, 2-(5-Methyl-3-phenyl-isoxazol-4-yl)-imidazo[1,2-a]pyridine-7-carboxylic acid prop-2-ynylamide] it is 72.3 nM.
For the molecule `CCOC(=O)c1ccc2nc(-c3c(-c4ccccc4)noc3C)cn2c1` [Example 30, 2-(5-Methyl-3-phenyl-isoxazol-4-yl)-imidazo[1,2-a]pyridine-6-carboxylic acid ethyl ester], the Ki was found to be 154 nM.
For `Cc1onc(-c2ccccc2)c1-c1cn2cc(C(=O)NCC3CC3)ccc2n1` [Example 31, 2-(5-Methyl-3-phenyl-isoxazol-4-yl)-imidazo[1,2-a]pyridine-6-carboxylic acid cyclopropylmethyl-amide], the Ki is 23.9 nM.
For the molecule `Cc1onc(-c2ccccc2)c1-c1cn2cc(C(=O)NC3CC3)ccc2n1` [Example 33, 2-(5-Methyl-3-phenyl-isoxazol-4-yl)-imidazo[1,2-a]pyridine-6-carboxylic acid cyclopropylamide], the Ki was 23.6 nM.
As to `Cc1onc(-c2ccccc2)c1-c1cn2cc(C(=O)NC3CCC3)ccc2n1` [Example 34, 2-(5-Methyl-3-phenyl-isoxazol-4-yl)-imidazo[1,2-a]pyridine-6-carboxylic acid cyclobutylamide], the Ki was found to be 19.8 nM.
As for `Cc1onc(-c2ccccc2)c1-c1cn2ccc(NC(=O)C3CCCC3)cc2n1` [Example 50, Cyclopentanecarboxylic acid [2-(5-methyl-3-phenyl-isoxazol-4-yl)-imidazo[1,2-a]pyridin-7-yl]-amide], the Ki was determined as 85.9 nM.
In the case of `C#Cc1ccn2cc(-c3c(-c4ccccc4)noc3C)nc2c1` [Example 45, 7-Ethynyl-2-(5-methyl-3-phenyl-isoxazol-4-yl)-imidazo[1,2-a]pyridine], the Ki is 189 nM.
As for `Cc1onc(-c2ccccc2)c1-c1cn2ccc(C(=O)NC3CCCC3)cc2n1` [Example 15, 2-(5-Methyl-3-phenyl-isoxazol-4-yl)-imidazo[1,2-a]pyridine-7-carboxylic acid cyclopentylamide], the Ki worked out at 200 nM.
`Cc1onc(-c2ccccc2)c1-c1cn2cc(F)ccc2n1` [Example 25, 6-Fluoro-2-(5-methyl-3-phenyl-isoxazol-4-yl)-imidazo[1,2-a]pyridine]: the inhibition constant Ki was 154 nM.
As to `COC(=O)c1ccn2cc(-c3c(-c4ccccc4)noc3C)nc2c1` [Example 10, 2-(5-Methyl-3-phenyl-isoxazol-4-yl)-imidazo[1,2-a]pyridine-7-carboxylic acid methyl ester], the Ki was 150 nM.
Consider `C#CCNC(=O)c1ccc2nc(-c3c(-c4ccccc4)noc3C)cn2c1` [Example 32, 2-(5-Methyl-3-phenyl-isoxazol-4-yl)-imidazo[1,2-a]pyridine-6-carboxylic acid prop-2-ynylamide], for which the Ki stood at 44.5 nM.
Regarding `Cc1onc(-c2ccccc2)c1-c1cn2ccc(C(=O)NCc3ccco3)cc2n1` [Example 23, 2-(5-Methyl-3-phenyl-isoxazol-4-yl)-imidazo[1,2-a]pyridine-7-carboxylic acid (furan-2-ylmethyl)-amide], the Ki came out at 183 nM.
`Cc1onc(-c2ccccc2)c1-c1cn2cc(Cl)ccc2n1` [Example 26, 6-Chloro-2-(5-methyl-3-phenyl-isoxazol-4-yl)-imidazo[1,2-a]pyridine]: the Ki was found to be 110 nM.
As for `Cc1onc(-c2ccccc2)c1-c1cn2ccc(C(=O)NC3CC3)cc2n1` [Example 13, 2-(5-Methyl-3-phenyl-isoxazol-4-yl)-imidazo[1,2-a]pyridine-7-carboxylic acid cyclopropylamide], the inhibitory constant (Ki) came out at 87.4 nM.
On to `Cc1onc(-c2ccccc2)c1-c1cn2cc(N3CCC3=O)ccc2n1` [Example 62, 1-[2-(5-Methyl-3-phenyl-isoxazol-4-yl)-imidazo[1,2-a]pyridin-6-yl]-azetidin-2-one], for which the Ki was found to be 27 nM.
For the molecule `Cc1onc(-c2ccccc2)c1-c1cn2cc(C(=O)NCc3cccnc3)ccc2n1` [Example 41, 2-(5-Methyl-3-phenyl-isoxazol-4-yl)-imidazo[1,2-a]pyridine-6-carboxylic acid (pyridin-3-ylmethyl)-amide], the Ki was 41.2 nM.
For the molecule `Cc1onc(-c2ccccc2)c1-c1cn2cc(C(=O)NCCO)ccc2n1` [Example 36, 2-(5-Methyl-3-phenyl-isoxazol-4-yl)-imidazo[1,2-a]pyridine-6-carboxylic acid (2-hydroxy-ethyl)-amide], the Ki turned out to be 59.8 nM.
On to `Cc1onc(-c2ccccc2)c1-c1cn2ccc(C(=O)NCc3cccnc3)cc2n1` [Example 21, 2-(5-Methyl-3-phenyl-isoxazol-4-yl)-imidazo[1,2-a]pyridine-7-carboxylic acid (pyridin-3-ylmethyl)-amide], for which the inhibition constant (Ki) worked out at 97 nM.
The figure for `c1ccc(-c2noc(C3CC3)c2-c2cn3ccccc3n2)cc1` [Example 68, 2-(5-Cyclopropyl-3-phenyl-isoxazol-4-yl)-imidazo[1,2-a]pyridine] is 5.5 nM; for `Cc1onc(-c2ccccc2)c1-c1cn2ccc(C(=O)NCCO)cc2n1` [Example 16, 2-(5-Methyl-3-phenyl-isoxazol-4-yl)-imidazo[1,2-a]pyridine-7-carboxylic acid (2-hydroxy-ethyl)-amide] it is 114 nM.
